The values that follow come from patent US11584728B2, “Compositions and methods for the prevention and/or treatment of mitochondrial disease, including Friedreich's ataxia” (STEALTH BIOTHERAPEUTICS INC., priority 2019, dated 2023).

The subject of test [1] is frataxin deficient fibroblasts (GM03665). Description: Frataxin Deficient Fibroblast Viability Assay (BSO Assay). Conditions: Homo sapiens, 48 h.
Test [2] concerns HepG2 human hepatocarcinoma cells. The test can be described thus: Rotenone ATP-Assay (Complex I by-pass). It is filed as cell-based. The settings on record: for Activity in both the BSO Assay and the Rotenone ATP Assay (in words): circumvent BSO induced cell death and restore ATP production when Complex I is inhibited; for EC50: Homo sapiens, 1 h, HepG2 cells, 50 micromolar rotenone, 60 minutes. As for the experimental part:
Example 18: Rotenone ATP-Assay
Introduction: • This assay has been adapted from Haefeli R H, Erb M, Gemperli A C, Robay D, Courdier Fruh I, et al. (2011) NQO1-Dependent Redox Cycling of Idebenone: Effects on Cellular Redox Potential and Energy Levels. PLoS ONE 6(3): e17963. HepG2 human hepatocarcinoma cells were co-incubated with the electron transport chain Complex I toxin rotenone +/−compounds of interest and the corresponding effect on ATP synthesis was measured with a bioluminescent substrate.
Assay Experimental: • In brief, HepG2 cells were plated at 25,000 cells per well in low glucose (1 gram/Liter) DMEM medium +10% fetal calf serum and incubated for 24 hours. The following day, the media was decanted and subsequently replaced with glucose free/serum free DMEM which has been supplemented with 50 micromolar rotenone and compound of interest. Serial dilutions of compound were prepared in 3× dilutions beginning at 25 micromolar. The cells were incubated for 60 minutes in a humidified tissue culture incubator. Following incubation, ATP levels were quantified via bioluminescent assay (Promega […]) and readings were captured on a standard microplate reader.
Calculations: • ATP bioluminescence is plotted versus the log of compound of interest and data were used to generate EC50 values. Curve fitting was performed using a sigmoidal dose response curve fit function (GraphPad Prism software).
Robustness of curve fit was assessed as a quality control measure, with an R squared value of at least 0.80 being required for a successful curve fit. Compounds of interest showing an increase in ATP bioluminescence relative to vehicle control were verified in an independent biological replicate of n=3 technical replicates per dose.
Discussion: • This assay is a direct measure of the ability of compounds of interest to restore ATP production under conditions of inhibition of Complex I of the mitochondrial electron transport chain. As the majority of ATP produced via the electron transport chain is thought to derive from Complex I activity, significant impairment in Complex I function has dire biological consequences. Of note, Complex I mutations are thought to drive pathophysiology in multiple mitochondrial diseases, including Leigh syndrome and Leber's Hereditary Optic Neuropathy (LHON), while diminished Complex I activity and the resultant attenuation of ATP production has been shown in neurodegenerative diseases, including Friedreich's Ataxia, Parkinson's Disease and Huntington's Disease.

Test [3] relates to Nrf-2. Description: Nrf-2 Activation Assay (Nrf-2 Assay). It is filed as cell-based, human. The settings on record: 1 μM, 24 hours; for Nrf-2 Assay: Table 7, GM03665 fibroblasts, qPCR of Nrf-2 responsive genes. As for the experimental part: Example 21: Nrf-2 Activation Assay (Nrf-2 Assay)
This assay was developed internally and was designed to determine if the novel test compounds disclosed herein active Nrf-2 and thereby promote resolution of inflammation by the mechanism believed to be responsible for the activity of omaveloxolone.
Briefly, GM03665 Friedreich Ataxia patient fibroblasts were grown in 12 Well Plates (TC Cell+F) (Sarstedt, Nümbrecht Germany), at a density of 12×10^4 cells/per well in DMEM/F12 (Gibco, ThermoFisher Scientific, Waltham, Mass., USA) cell media supplemented with 10% FBS and 1% Pen/Strep. Cells were left to rest overnight at 37° C. in a humidified atmosphere with 5% CO2 to allow attachment of the cells to the culture plate. Before continuing assay visual inspection of each well was done by light microscopy to detect any possible bacterial and fungal contamination. […] After incubation, cell media was removed and total RNA from the cells was isolated using E.Z.N.A.® Total RNA Kit I (Omega Bio-tek, Norcross, Ga., USA) spin columns, and first-strand cDNA synthesis was carried out using a High Capacity cDNA Reverse Transcription Kit (Applied Biosystems™, Foster City, Calif.) following the manufacturer's instructions. qPCR analysis of gene expression was performed by mixing SYBR® Green Master Mix (Applied Biosystems™) with synthesized cDNA and forward and reverse primers. […] (60 cycles), and 95° C. for 60 seconds, followed by melt curve analysis at 72-95° C., 0.3° C./sec. The relative expression levels for each gene were calculated with the ΔΔCt method and normalized to the expression of REEP5 and SNRPD3 genes.
In general terms: Real-time PCR tracks product formation cycle by cycle.

In test [4] the test system is GM03665 cells. Description: RSL3 Toxicity Assay (RSL3 Assay). The test is classed as cell-based, human. The settings on record: Homo sapiens, GM03665 cells, RSL3 2 μM, 24 hours, MTT. As for the experimental part: Example 19: RSL3 Toxicity Assay (RSL3 Assay)
In brief, GM03665 cells (Coriell Institute) were seeded in 96-well plates (Sarstedt) in DMEM cell culture media containing 10% Fetal Bovine serum and 1% Penicillin-Streptomycin (Pen-Strep) antibiotic mix at the amount of 2×10^4/mL (100 μL or 2×10^3 cells per well). Cells were left to rest overnight at 37° C. in a humidified atmosphere with 5% CO2 to allow attachment of the cells to the culture plate. Test compounds were prepared as DMSO stocks (10 mM) and were serially diluted in cell culture media to obtain 2× working solutions. Cell media was discarded and replaced by 50 μL of test compound solutions or cell media with vehicle for control wells. Within 15 minutes, 2× working solution (4 μM) of 1S,3R-RSL3 (CAS #1219810-16-8, Sigma-Aldrich) (diluted from 5 mM DMSO stock in cell culture media) was added. Final reaction volume was 100 μL and final DMSO concentration in reaction was kept below 0.2% (v/v) and equal in all wells. Final RSL3 concentration was 2 μM and test compound final concentrations in reaction were up to 1000 nM. After 24 hours of incubation cell viability was assessed by MTT test. MTT (Sigma-Aldrich) solution 1 mg/mL in 1×PBS (pH=7,4) was prepared 1 hour before the assay and filtered through Filtropur S 0.2 filters (Sarstedt). Cell media with test compounds was discarded and 100 μL of MTT solution was added to cells. The plates were incubated for 2 hours at +37° C. Thereafter, the MTT solution was removed and 100 μL of isopropanol was added to dissolve sediment. Absorption at 570 and 650 nm was measured using Hidex Sense microplate reader.

The mark [5] stands for this setting: ATP bioluminescence, read-out: EC50 Rotenone ATP Assay.
The mark [6] stands for this setting: Table 7, read-out: Rotenone ATP Assay EC50.
Setting [7] is: Table 3, mean of at least three measurements, nM printed in Table 7, read-out: RSL3 Assay EC50, Mean.
Where [8] appears, read: Table 7, read-out: RSL3 Assay EC50.

Read-outs that look alike come from different tables or passages of the source.

Turning to `C/C(=C\CC[C@]1(C)CCc2c(C)c(O)c(C)c(C)c2O1)CCC=C(F)F` [Compound 56, (R,E)-2-(8,8-difluoro-4-methylocta-3,7-dien-1-yl)-2,5,7,8-tetramethylchroman-6-ol], in test [1] (read-out: EC50 (nM) BSO Assay), the EC50 is less than 100 nM.
On to `Cc1c(C)c2c(c(C)c1O)CC[C@@](C)(CCC=C(F)F)O2` [Compound 67, (R)-2-(4,4-difluorobut-3-en-1-yl)-2,5,7,8-tetramethylchroman-6-ol], for which the “Activity in both the BSO Assay and the Rotenone ATP Assay (in words)” value in test [2] is “possess both activities”. Further, in test [1] (read-out: EC50 (nM) BSO Assay), the EC50 is less than 100 nM.
Take `CC1=C(C)C(=O)C(CC[C@](C)(O)CC/C=C(\C)CC/C=C(\C)CCC=C(CF)CF)=C(C)C1=O` [Compound A, 2-((R,6E,10E)-16-fluoro-15-(fluoromethyl)-3-hydroxy-3,7,11-trimethylhexadeca-6,10,14-trien-1-yl)-3,5,6-trimethylcyclohexa-2,5-diene-1,4-dione]: in test [1] (read-out: EC50 (nM) BSO Assay), the EC50 was less than 100 nM.
Take `CC(=CCC/C(C)=C/CC/C(C)=C/CC[C@@](C)(O)CCC1=C(C)C(=O)C(C)=C(C)C1=O)CF` [Compound B, 2-((R,6E,10E)-16-fluoro-3-hydroxy-3,7,11,15-tetramethylhexadeca-6,10,14-trien-1-yl)-3,5,6-trimethylcyclohexa-2,5-diene-1,4-dione]: the EC50 in test [1] (read-out: EC50 (nM) BSO Assay) is less than 100 nM.
On to `CC1=C(C)C(=O)C(CC[C@](C)(O)CC/C=C(\C)CC/C=C(\C)CCC=C(F)F)=C(C)C1=O` [Compound C, 2-((R,6E,10E)-15,15-difluoro-3-hydroxy-3,7,11-trimethylpentadeca-6,10,14-trien-1-yl)-3,5,6-trimethylcyclohexa-2,5-diene-1,4-dione], for which the EC50 in test [1] (read-out: EC50 (nM) BSO Assay) is less than 100 nM.
Turning to `CC1=C(C)C(=O)C(CC[C@](C)(O)CC/C=C(\C)CC/C=C(\C)CCC=C2CCC2)=C(C)C1=O` [Compound D, 2-((R,6E,10E)-14-cyclobutylidene-3-hydroxy-3,7,11-trimethyltetradeca-6,10-dien-1-yl)-3,5,6-trimethylcyclohexa-2,5-diene-1,4-dione], the EC50 in test [2] (setting [5]) is more than 3000 nM; in test [1] (read-out: EC50 (nM) BSO Assay), less than 100 nM.
In the case of `CC1=C(C)C(=O)C(CC[C@](C)(O)CC/C=C(\C)CC/C=C(\C)CCC=C2CCCC2)=C(C)C1=O` [Compound F, 2-((R,6E,10E)-14-cyclopentylidene-3-hydroxy-3,7,11-trimethyltetradeca-6,10-dien-1-yl)-3,5,6-trimethylcyclohexa-2,5-diene-1,4-dione], in test [1] (read-out: EC50 (nM) BSO Assay), the EC50 is less than 100 nM.
On to `CC1=C(C)C(=O)C(CC[C@](C)(O)CC/C=C(\C)CC/C=C(\C)CCC=C2CCCCC2)=C(C)C1=O` [Compound G, 2-((R,6E,10E)-14-cyclohexylidene-3-hydroxy-3,7,11-trimethyltetradeca-6,10-dien-1-yl)-3,5,6-trimethylcyclohexa-2,5-diene-1,4-dione], for which the EC50 in test [1] (read-out: EC50 (nM) BSO Assay) is less than 100 nM.
For the compound `CC1=C(C)C(=O)C(CC[C@](C)(O)CC/C=C(\C)CCC=C(F)F)=C(C)C1=O` [Compound H, (R,E)-2-(11,11-difluoro-3-hydroxy-3,7-dimethylundeca-6,10-dien-1-yl)-3,5,6-trimethylcyclohexa-2,5-diene-1,4-dione], the EC50 in test [2] (setting [5]) is less than 1000 nM; in test [2] (setting [6]), 1140 nM; in test [1] (read-out: BSO Assay) it was 164 nM; in test [1] (read-out: EC50 (nM) BSO Assay), 100 to 1000 nM; in test [4] (setting [7]), 179 nM; in test [4] (setting [8]) it was 179 nM. For the same compound, the “Nrf-2 Assay” value in test [3] is listed as “Inactive”.
Consider `CC1=C(C)C(=O)C(CC[C@](C)(O)CCC=C(F)F)=C(C)C1=O` [Compound I, (R)-2-(7,7-difluoro-3-hydroxy-3-methylhept-6-en-1-yl)-3,5,6-trimethylcyclo-hexa-2,5-diene-1,4-dione], for which the results for the EC50 in test [2] (setting [5]) and in test [1] (read-out: EC50 (nM) BSO Assay) were more than 3000 nM and 100 to 1000 nM, respectively.
Consider `CC1=C(C)C(=O)C(CC[C@@](C)(O)CC/C=C(\C)CC/C=C(\C)CCC=C(F)F)=C(C)C1=O` [Compound J, 2-((S,6E,10E)-15,15-difluoro-3-hydroxy-3,7,11-trimethylpentadeca-6,10,14-trien-1-yl)-3,5,6-trimethylcyclohexa-2,5-diene-1,4-dione], for which the EC50 in test [1] (read-out: EC50 (nM) BSO Assay) was less than 100 nM.
As to `CC1=C(C)C(=O)C(CC[C@@](C)(O)CCC=C(F)F)=C(C)C1=O` [Compound K, (S)-2-(7,7-difluoro-3-hydroxy-3-methylhept-6-en-1-yl)-3,5,6-trimethylcyclo-hexa-2,5-diene-1,4-dione], the values for the EC50 in test [2] (setting [5]) and in test [1] (read-out: EC50 (nM) BSO Assay) were more than 3000 nM and less than 100 nM, respectively.
Consider `CC1=C(C)C(=O)C(CC[C@@](C)(O)CC/C=C(\C)CCC=C(F)F)=C(C)C1=O` [Compound L, (S,E)-2-(11,11-difluoro-3-hydroxy-3,7-dimethylundeca-6,10-dien-1-yl)-3,5,6-trimethylcyclohexa-2,5-diene-1,4-dione], for which the EC50 in test [2] (setting [5]) was less than 1000 nM; in test [2] (setting [6]) it was 891 nM; in test [1] (read-out: BSO Assay), 39.1 nM; in test [1] (read-out: EC50 (nM) BSO Assay), less than 100 nM; in test [4] (setting [7]), 41.9 nM; in test [4] (setting [8]), 41.9 nM. Also, the “Activity in both the BSO Assay and the Rotenone ATP Assay (in words)” value in test [2] was “possess both activities”. Moreover, in test [3], the “Nrf-2 Assay” value is listed as “Inactive”.
Turning to `COC1=C(OC)C(=O)C(CCCCCCCCCCO)=C(C)C1=O` [Idebenone, reference compound], the EC50 in test [2] (setting [5]) was 1000 to 3000 nM; in test [2] (setting [6]) it was 1560 nM; in test [1] (read-out: BSO Assay) it was more than 1000 nM.
As to `CC1(C)CC[C@]2(NC(=O)C(C)(F)F)CC[C@]3(C)[C@H](C(=O)C=C4[C@@]5(C)C=C(C#N)C(=O)C(C)(C)[C@@H]5CC[C@]43C)[C@@H]2C1` [Omaveloxolone, reference compound], the EC50 was more than 3000 nM in test [2] (setting [5]), 48.6 nM in test [1] (read-out: BSO Assay) and less than 100 nM in test [1] (read-out: EC50 (nM) BSO Assay). Besides, the “Activation of Nrf-2 responsive genes (in words, FIG. 7)” value in test [3] is “positive”. Also, the “Nrf-2 Assay” value in test [3] is “Active”.
